Patent publication US20160213647A1, “COMPOSITIONS AND METHODS FOR INHIBITING VIRAL INFECTION” (priority 2015, published 2016)
In brackets after ≈: the same amount, converted by molar mass. Like-named read-outs stand apart in the source and are kept apart here.

Assays:
A/Ca/07/09 (H1N1) = assay: microbe, parasite or virus in culture; type: cell-based; details: Influenza A virus, H1N1, HEK-293T; read-out: EC50
in vitro [1] = details: African green monkey
Rabies Virus = assay: microbe, parasite or virus in culture; type: cell-based; details: Lyssavirus rabies
HIV-1 92HT599 = assay: microbe, parasite or virus in culture; details: Human immunodeficiency virus 1, PBMC
HIV-1 isolate MDR769 = assay: microbe, parasite or virus in culture; details: Human immunodeficiency virus 1, PBMC
[2] = system: Junin virus strains Candid-1, XJC13 and IV4454; assay: in vitro; details: African green monkey (Vero), human (A549)
A/Udorn/72 (H3N2) = assay: microbe, parasite or virus in culture; type: cell-based; details: Influenza A virus, H3N2, HEK-293T; read-out: EC50
[3] = system: influenza A virus (IAV) strain PR8 (H1N1); type: cell-based
Varicella-zoster virus = assay: microbe, parasite or virus in culture; type: cell-based; details: Human alphaherpesvirus 3
[4] = long term oral exposures up to 33 weeks; cited from earlier work
HIV-1 isolate A17 = assay: microbe, parasite or virus in culture; details: Human immunodeficiency virus 1, PBMC
HIV-2 CBL20 H9 = assay: microbe, parasite or virus in culture; details: Human immunodeficiency virus 2, PBMC
three JUNV strains = assay: microbe, parasite or virus in culture; details: Mammarenavirus juninense, read-out: EC50 values, range depending on the virus strain and the host cell
BK virus = assay: microbe, parasite or virus in culture; type: cell-based; details: Betapolyomavirus hominis
JUNV strain XJCl3 = assay: microbe, parasite or virus in culture; details: Mammarenavirus juninense, A549, 48 h
DENV-1 = assay: Virus yield reduction assay by qRT-PCR in Vero cells; type: cell-based; details: Dengue virus, DENV1, Vero, 48 h, read-out: Antiviral Activity IC50
[5] = system: influenza A virus (IAV) strain PR8 (H1N1); type: cell-based; remark: listed apart in the source
HIV-1 isolate MDR807 = assay: microbe, parasite or virus in culture; details: Human immunodeficiency virus 1, PBMC
JUNV strain IV4454 [6] = assay: microbe, parasite or virus in culture; details: Mammarenavirus juninense, A549, 48 h
Norovirus = assay: microbe, parasite or virus in culture; type: cell-based
HIV-1 isolate NL4-3 = assay: microbe, parasite or virus in culture; details: Human immunodeficiency virus 1, NL43, PBMC
in vitro [7] = details: African green monkey, CC50 (Neutral Red)
JUNV strain IV4454 [8] = assay: microbe, parasite or virus in culture; details: Mammarenavirus juninense, Vero, 48 h
JUNV strain Candid-1 [9] = assay: microbe, parasite or virus in culture; details: Mammarenavirus juninense, Vero, 48 h
[10] = system: arenavirus Tacaribe (TCRV), strain TRLV11573; assay: microbe, parasite or virus in culture; type: cell-based, Tacaribe virus; details: Vero
HIV-1 MDR 769 = assay: microbe, parasite or virus in culture; details: Human immunodeficiency virus 1, PBMC
JUNV strain Candid-1 [11] = assay: microbe, parasite or virus in culture; details: Mammarenavirus juninense, A549, 48 h
RHDV isolate Ast/89 = assay: Treatment of rabbits infected with RHDV; type: in vivo, New Zealand white rabbits
Protocol: Nine-week-old New Zealand white rabbits in a climatized room at 21° C., with a 12 h light cycle in accordance with the experimental design shown in Table 9 and provided standard dry rabbit food and water ad libitum. For survival studies, 14 animals were injected intramuscularly with 2×10^4 hemagglutination units of RHDV isolate Ast/89 and six of them treated with AR-12 (25 mg/Kg body weight) at 0, 12, 24 and 36 hours post infection ([…]). Animals in those groups were left to die spontaneously.

MA-104 = assay: Cytotoxicity (CC50) in the in vitro viral screen; type: cell-based; details: listed as Respiratory Syncytial Virus A2; neutral red
Source text: (§1) The results of an exemplary in vitro screen of the activity of AR-12 against various viruses is summarized below.

[12] = Cytotoxicity (CC50) in the in vitro viral screen; type: cell-based; details: African green monkey, MA-104 cells; listed as Respiratory Syncytial Virus A2; visual
Source text: as §1

[13] = 25 mg/Kg ip, after about 36 hours post infection, versus RHDV

## NCC(=O)Nc1ccc(-n2nc(C(F)(F)F)cc2-c2ccc3c(ccc4ccccc43)c2)cc1 [AR-12, 2-amino-N-(4-(5-(phenanthren-2-yl)-3-(trifluoromethyl)-1H-pyrazol-1-yl)phenyl)acetamide]
A/Ca/07/09 (H1N1)
  EC50: 370 nM
In vitro [1]; CC50 (Neutral Red)
  CC50: 1.8 µg/mL (≈ 3.91 µM)
In vitro [1]; CC50 (neutral red)
  CC50: 2.4 µg/mL (≈ 5.21 µM)
In vitro [1]; CC50 (visual)
  CC50: 2.8 µg/mL (≈ 6.08 µM)
Rabies Virus
  EC50: 2610 nM
HIV-1 92HT599
  IC50: 270 nM
HIV-1 91US001
  IC50: 240 nM
HIV-1 isolate MDR769
  IC90: 848 nM
HIV-1 isolate MDR769; read-out: IC50
  IC90: 3820 nM
[2]
  selectivity ratio: 35.1 to 129
HIV-2 CDC 310319
  IC50: 370 nM
A/Udorn/72 (H3N2)
  EC50: 330 nM
[3]
  viral protein production is reduced: at least 50%
Varicella-zoster virus
  EC50: 1150 nM
  EC90: 1680 nM
[4]
  safety profile: acceptable safety profile
HIV-1 isolate A17
  IC90: 0.914 µM
HIV-1 isolate A17; read-out: IC50
  IC90: 6.64 µM
HIV-2 CBL20 H9
  IC50: 510 nM
Three JUNV strains
  EC50: 150 to 550 nM
BK virus
  EC50: > 2400 nM
  EC90: > 2400 nM
JUNV strain XJCl3
  EC50: 550 ± 50 nM
DENV-1
  IC50: 640 nM
[5]
  viral infection (% infection): prevents viral infections
HIV-1 isolate MDR807
  IC90: 905 nM
HIV-1 isolate MDR807; read-out: IC50
  IC90: 2130 nM
JUNV strain IV4454 [6]
  EC50: 550 ± 50 nM
Norovirus
  EC50: 718 nM
  EC90: 8.1 µM
HIV-1 isolate NL4-3
  IC90: 749 nM
HIV-1 isolate NL4-3; read-out: IC50
  IC90: 2170 nM
In vitro [7]
  CC50: 1.3 µg/mL (≈ 2.82 µM)
JUNV strain IV4454 [8]
  EC50: 510 ± 50 nM
JUNV strain Candid-1 [9]
  EC50: < 150 nM
[10]
  EC50: 350 ± 30 nM
Vero; listed as Pichinde Virus An 4763, neutral red
  CC50 (neutral red): 2.8 µg/mL (≈ 6.08 µM)
Vero; listed as Pichinde Virus An 4763
  CC50 (visual): 3.2 µg/mL (≈ 6.95 µM)
Vero; listed as Yellow Fever Virus 17D
  CC50 (visual): 2.8 µg/mL (≈ 6.08 µM)
HIV-1 MDR 769
  IC50: 310 nM
JUNV strain Candid-1 [11]
  EC50: 150 ± 20 nM
RHDV isolate Ast/89; 25 mg/Kg ip each 12 hours, at least about 24 hours post infection, p<0.05 Fisher test
  survival rates of infected rabbits increased: about 20%
RHDV isolate Ast/89; [13]
  level of marker of liver toxicity ALT (Alanine transaminase): decreased
  level of marker of liver toxicity AST (Aspartate transaminase): decreased
  level of marker of liver toxicity GGT (gamma-glutamyl transferase): decreased
  level of marker of liver toxicity LDH (lactate dehydrogenase): decreased
MA-104
  CC50 (neutral red): 3.2 (visual), 3.2
[12]
  CC50: 3.2 µg/mL (≈ 6.95 µM)
